# From article PMC9919437 (Molecules, 2023)
# “Also recorded” adds a separate entry of the source.
# B1: N-terminal domain of the lectin BC2L-C from Burkholderia cenocepacia (domain or fragment)
# chain: MPLLSASIVSAPVVTSETYVDIPGLYLDVAKAGIRDGKLQVILNVPTPYATGNNFPGIYFAIATNQGVVADGCFTYSSKVPESTGRMPFTLVATIDVGSGVTFVKGQWKSVRGSAMHIDSYASLSAIWGTAA
# notes: also called BC2L-C-Nt; BC2L-C N-terminal domain; not shown: expression tag, N-terminal, cleaved
# Key:
# BC2L-C-Nt = biological target: BC2L-C-Nt; parameters: method as in PMID 36174276; settings: SPR, BC2L-C-Nt immobilized on CM5 chip; said not to correlate with ITC; read-out: apparent Kd; cited from earlier work
# [1] = parameters: method as in PMID 36174276; settings: cited from earlier work
# Water solubility = type: physicochemical; settings: fully soluble at least up to
# [2] = biological target: the molecule itself; assay: crystal structure; hexagonal crystal form (P6_3), one protomer in the asymmetric unit, trimer by the 3-fold crystallographic symmetry; cocrystals with H-type 1 oligosaccharide soaked with 3 mM compound 3 in 2.47 M sodium malonate pH 7.0 for 48 h at 19 °C
Molecule,solubility (Water solubility) [µM],other results
C[C@@H]1O[C@H](NC(=O)c2ccc(-c3cccc(N)c3)o2)[C@@H](O)[C@H](O)[C@@H]1O [compound 2],,Kd (BC2L-C-Nt): 2.4 mM; water solubility (in words) [1]: very low water solubility; also recorded: water-insoluble
C[C@@H]1O[C@H](NC(=O)c2ccc(-c3cccc(CN)c3)o2)[C@@H](O)[C@H](O)[C@@H]1O [compound 3],≥ 2000,
NCc1cccc(-c2ccc(C(=O)NC3OC(CO)C(O)C(O)C3O)o2)c1 (stereo not drawn) [compound 4],≥ 2000,
"C[C@@H]1O[C@H](NC(=O)c2ccco2)[C@@H](O)[C@H](O)[C@@H]1O [compound 17, Furan-2-carboxamido-β-L-fucopyranose]",≥ 2000,
B1,,stoichiometry N [2]: 3
